The values below are quoted from earlier work in PMC7927942 (Journal of chemical information and modeling, 2020).

SMILES strings stand for the structures.

This series addresses wild-type JAK2 JH2 (Homo sapiens, UniProt O60674). The following applies: benchmark ligand from high-throughput screen.

wild-type JAK2 JH2, sequence (O60674 545-809 limits assumed): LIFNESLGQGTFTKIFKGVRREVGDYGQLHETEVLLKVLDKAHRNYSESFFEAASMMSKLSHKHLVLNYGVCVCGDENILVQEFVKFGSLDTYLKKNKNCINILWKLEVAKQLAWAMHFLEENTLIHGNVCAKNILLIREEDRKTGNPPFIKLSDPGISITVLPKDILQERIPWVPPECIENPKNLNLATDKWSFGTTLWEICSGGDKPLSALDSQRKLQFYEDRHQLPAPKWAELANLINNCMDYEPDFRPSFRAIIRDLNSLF

For the compound `O=C(Nc1nc2cccc(-c3ccc(CN4CCS(=O)(=O)CC4)cc3)n2n1)C1CC1` [filgotinib], the “% binding at 50 μM” value was 9%.
